Among the test systems are ACHN renal; EKVX NSCLC; HCC-2998 colon; HCT-15 colon; HL-60(TB) leukemia; HOP-62 NSCLC; HS 578T breast; K-562 leukemia; LOX IMVI melanoma; M14 melanoma; MCF7 breast; MDA-MB-231 breast; MDA-MB-435; NCI/ADR-RES ovarian; OVCAR-8 ovarian; SF-295 CNS; SK-MEL-5 melanoma; SK-OV-3 ovarian; T-47D breast; UACC-62 melanoma.
Experiment in all cases: growth of human tumour cells (NCI), 48 h

Structures are written as SMILES.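 Five compound concentrations were applied to cells in 96-well plates for 48 hours; endpoints were derived by simple linear interpolation of the resulting dose-response curve. TGI is the concentration that stops growth completely.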 A value given as a limit tells only on which side of the number the result lay.

With `CN(Cc1cnc2nc(N)nc(N)c2n1)c1ccc(C(=O)NC(CCC(=O)NCCC(P(=O)(O)O)P(=O)(O)O)C(=O)O)cc1` (stereo not drawn), the TGI in the experiment on ACHN renal, in the experiment on EKVX NSCLC, in the experiment on HCC-2998 colon, in the experiment with HCT-15 colon, with HL-60(TB) leukemia and in the experiment with HOP-62 NSCLC was > 100 µM in each case. The TGI in the experiment on HS 578T breast, in the experiment on K-562 leukemia, in the experiment on LOX IMVI melanoma, in the experiment with M14 melanoma, in the experiment on MCF7 breast and in the experiment with MDA-MB-231 breast was > 100 µM each time. Moreover, the TGI in the experiment on MDA-MB-435, in the experiment on NCI/ADR-RES ovarian, in the experiment with OVCAR-8 ovarian, with SF-295 CNS, in the experiment with SK-MEL-5 melanoma and in the experiment on SK-OV-3 ovarian was > 100 µM in each case. The TGI in the experiment with T-47D breast and with UACC-62 melanoma was > 100 µM throughout.
As to `OCC1OC(c2cccc3cc(O)c(O)cc23)CC1O` (stereo not drawn), the TGI with ACHN renal, with EKVX NSCLC, with HCC-2998 colon, in the experiment with HCT-15 colon, in the experiment on HL-60(TB) leukemia and with HOP-62 NSCLC was > 100 µM in each case. For the same compound, the TGI with HS 578T breast, with K-562 leukemia, in the experiment with LOX IMVI melanoma, in the experiment with M14 melanoma, in the experiment on MCF7 breast and in the experiment on MDA-MB-231 breast was > 100 µM in each case. Besides, the TGI with MDA-MB-435, in the experiment with NCI/ADR-RES ovarian, in the experiment on OVCAR-8 ovarian, with SF-295 CNS, in the experiment on SK-OV-3 ovarian and in the experiment on T-47D breast was > 100 µM throughout. Also, the TGI in the experiment with UACC-62 melanoma was > 100 µM.
As to `C/C(=N\NC(=S)N1CCCCC1)c1nc2ncccc2[nH]1`, the TGI with ACHN renal is > 100 µM; in the experiment on EKVX NSCLC it was 98.2 µM; in the experiment on HCC-2998 colon it was > 100 µM; in the experiment with HCT-15 colon, > 100 µM; in the experiment with HL-60(TB) leukemia it was 19.1 µM; with HOP-62 NSCLC, > 100 µM. Moreover, the TGI with HS 578T breast is > 100 µM; with K-562 leukemia it was 43.7 µM; in the experiment on LOX IMVI melanoma it was > 100 µM; in the experiment with M14 melanoma, 47.7 µM; in the experiment on MCF7 breast, 14 µM; with MDA-MB-231 breast, > 100 µM. Further, the TGI is 35 µM in the experiment on MDA-MB-435; > 100 µM in the experiment on NCI/ADR-RES ovarian; 34.8 µM with OVCAR-8 ovarian; 88.7 µM with SF-295 CNS; 12.3 µM with SK-MEL-5 melanoma; > 100 µM in the experiment on SK-OV-3 ovarian. Also, the TGI was found to be 42.4 µM with T-47D breast and 69.7 µM with UACC-62 melanoma.
Consider `O=C(NC(Cc1c[nH]c2ccccc12)C(=O)Nc1ccc(Br)cc1)OCc1ccccc1` (stereo not drawn), for which the TGI in the experiment with ACHN renal was found to be 60.3 µM; with EKVX NSCLC, 22.3 µM; with HCC-2998 colon it was 23.1 µM; in the experiment with HCT-15 colon, 26.7 µM; in the experiment with HL-60(TB) leukemia it was 22.2 µM; with HOP-62 NSCLC, 23.7 µM. Further, the TGI was found to be 56.3 µM in the experiment with HS 578T breast; 51.3 µM with K-562 leukemia; 22.7 µM in the experiment with LOX IMVI melanoma; 27.6 µM in the experiment on M14 melanoma; 29.3 µM in the experiment on MCF7 breast; 22.9 µM with MDA-MB-231 breast. In addition, the TGI in the experiment on MDA-MB-435 was determined as 22.1 µM; in the experiment with NCI/ADR-RES ovarian it was 54.3 µM; in the experiment on OVCAR-8 ovarian, 30.3 µM; with SF-295 CNS, 23.9 µM; in the experiment with SK-MEL-5 melanoma, 22.5 µM; in the experiment on SK-OV-3 ovarian, 46.3 µM. For the same compound, the TGI in the experiment on T-47D breast is 53 µM; in the experiment with UACC-62 melanoma it was 22 µM.
For `Cc1cc(C)n2nc3nc(N)c(C#N)c(-c4ccccc4)c3c2n1`, the TGI with ACHN renal, in the experiment on EKVX NSCLC, with HCC-2998 colon, with HCT-15 colon, with HL-60(TB) leukemia and in the experiment on HOP-62 NSCLC was > 100 µM each time. Also, the TGI with HS 578T breast, with K-562 leukemia, in the experiment with LOX IMVI melanoma, with M14 melanoma, in the experiment on MCF7 breast and in the experiment with MDA-MB-231 breast was > 100 µM in each case. In addition, the TGI in the experiment on MDA-MB-435, in the experiment with NCI/ADR-RES ovarian, in the experiment on OVCAR-8 ovarian, in the experiment with SF-295 CNS, with SK-MEL-5 melanoma and in the experiment with SK-OV-3 ovarian was > 100 µM throughout. For the same compound, the TGI in the experiment with T-47D breast and with UACC-62 melanoma was > 100 µM in each case.
Consider `Nc1c2c(nc3cc(F)c(F)cc13)CCC2`, for which the TGI in the experiment with ACHN renal was > 100 µM; in the experiment on EKVX NSCLC, > 100 µM; in the experiment on HCC-2998 colon it was 35.1 µM; with HCT-15 colon it was > 100 µM; in the experiment with HL-60(TB) leukemia, 10.1 µM; in the experiment with HOP-62 NSCLC, > 100 µM. For the same compound, the TGI with HS 578T breast, with K-562 leukemia, in the experiment with LOX IMVI melanoma, in the experiment on M14 melanoma, in the experiment on MCF7 breast and in the experiment with MDA-MB-231 breast was > 100 µM each time. Further, the TGI in the experiment on MDA-MB-435, with NCI/ADR-RES ovarian, in the experiment on OVCAR-8 ovarian, with SF-295 CNS, with SK-MEL-5 melanoma and in the experiment with SK-OV-3 ovarian was > 100 µM in each case. Further, the TGI in the experiment on T-47D breast and in the experiment with UACC-62 melanoma was > 100 µM throughout.
Turning to `O=c1cnn(C2OC(C(O)CO)C(O)C2O)c(=O)[nH]1` (stereo not drawn), the TGI with ACHN renal, in the experiment with EKVX NSCLC, with HCC-2998 colon, with HCT-15 colon, with HL-60(TB) leukemia and with HOP-62 NSCLC was > 100 µM in each case. Besides, the TGI in the experiment on HS 578T breast, with K-562 leukemia, in the experiment with LOX IMVI melanoma, with M14 melanoma, with MCF7 breast and with MDA-MB-231 breast was > 100 µM throughout. In addition, the TGI in the experiment on MDA-MB-435, in the experiment with NCI/ADR-RES ovarian, in the experiment with OVCAR-8 ovarian, in the experiment on SK-MEL-5 melanoma, in the experiment on SK-OV-3 ovarian and in the experiment with T-47D breast was > 100 µM throughout. Further, the TGI in the experiment with UACC-62 melanoma is > 100 µM.

The values above are taken from PubChem BioAssay (NCI).
